Columns and labels:
Format in all cases: cell-based
PAT2 (SLC36A2) [1] = target: PAT2 (SLC36A2) (Rattus norvegicus, UniProt Q8K415); experiment: competition with radiolabelled proline uptake in Xenopus oocytes; design: full length in pSPORT1, expressed in Xenopus laevis oocytes; conditions: 10 μM proline, 10 mM glycine; Na+-free, pH 5.5
PAT2 (SLC36A2) [2] = target: T1, PAT2 (SLC36A2) (Rattus norvegicus, UniProt Q8K415, F159I); experiment: competition with radiolabelled proline uptake and direct uptake in Xenopus oocytes; conditions: 10 μM proline, 0-20 mM α-ABA; Na+-free, pH 5.5
T1 construct: full length in pSPORT1, expressed in Xenopus laevis oocytes

SNAT5 (SLC38A5) [3] = target: T2, SNAT5 (SLC38A5) (Homo sapiens, UniProt Q8WUX1); experiment: radiolabelled serine uptake and self-competition in Xenopus oocytes; conditions: 50 μM serine; pH 8.5, Na+
T2 construct: full length in pSPORT1, expressed in Xenopus laevis oocytes

SNAT5 (SLC38A5) [4] = target: T3, SNAT5 (SLC38A5) (Homo sapiens, UniProt Q8WUX1, A138T); experiment: radiolabelled alanine uptake and competition with serine uptake in Xenopus oocytes; conditions: 50 μM substrate, 0-10 mM competitor; pH 8.5, Na+
T3 construct: full length in pSPORT1, expressed in Xenopus laevis oocytes

SNAT5 (SLC38A5) [5] = target: T4, SNAT5 (SLC38A5) (Homo sapiens, UniProt Q8WUX1, A138I); experiment: as above; conditions: 50 μM substrate, 0-10 mM competitor; pH 8.5, Na+
T4 construct: full length in pSPORT1, expressed in Xenopus laevis oocytes

SNAT5 (SLC38A5) [6] = target: T2, SNAT5 (SLC38A5); experiment: competition with radiolabelled serine uptake in Xenopus oocytes; conditions: 50 μM serine, 0-10 mM asparagine; pH 8.5, Na+

T2 sequence (Q8WUX1 whole entry): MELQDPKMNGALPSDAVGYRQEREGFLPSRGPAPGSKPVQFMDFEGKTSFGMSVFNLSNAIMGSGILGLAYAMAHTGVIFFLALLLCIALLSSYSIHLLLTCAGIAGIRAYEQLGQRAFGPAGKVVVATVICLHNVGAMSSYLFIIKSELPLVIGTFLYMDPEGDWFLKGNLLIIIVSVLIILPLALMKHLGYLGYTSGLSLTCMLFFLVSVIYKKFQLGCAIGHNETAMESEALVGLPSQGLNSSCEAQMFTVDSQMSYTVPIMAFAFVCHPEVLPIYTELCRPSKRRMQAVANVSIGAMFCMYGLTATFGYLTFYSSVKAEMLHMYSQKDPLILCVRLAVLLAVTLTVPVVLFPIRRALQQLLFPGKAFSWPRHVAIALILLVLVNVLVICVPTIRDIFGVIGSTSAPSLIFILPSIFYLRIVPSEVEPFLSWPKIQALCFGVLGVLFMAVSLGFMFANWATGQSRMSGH
PAT2 (SLC36A2) (Rattus norvegicus, UniProt Q8K415), sequence (Q8K415 whole entry): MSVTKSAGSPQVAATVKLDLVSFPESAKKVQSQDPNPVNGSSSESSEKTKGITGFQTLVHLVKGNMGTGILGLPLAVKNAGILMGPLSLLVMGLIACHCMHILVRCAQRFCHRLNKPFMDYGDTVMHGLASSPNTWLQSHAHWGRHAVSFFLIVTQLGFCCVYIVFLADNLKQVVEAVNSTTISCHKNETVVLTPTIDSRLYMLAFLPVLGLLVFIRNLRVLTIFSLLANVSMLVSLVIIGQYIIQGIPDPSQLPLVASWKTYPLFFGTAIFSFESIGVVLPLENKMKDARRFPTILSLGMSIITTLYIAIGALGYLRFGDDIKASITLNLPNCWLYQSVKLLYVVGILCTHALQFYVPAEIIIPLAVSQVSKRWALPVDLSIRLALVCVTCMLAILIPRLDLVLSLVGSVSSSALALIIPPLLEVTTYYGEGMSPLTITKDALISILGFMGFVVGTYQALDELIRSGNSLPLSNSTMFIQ
T1 sequence (Q8K415 whole entry F159I): as the sequence (Q8K415 whole entry) above, with F159I counted along it
T3 sequence (Q8WUX1 whole entry A138T): as the sequence (Q8WUX1 whole entry) above, with A138T counted along it
T4 sequence (Q8WUX1 whole entry A138I): as the sequence (Q8WUX1 whole entry) above, with A138I counted along it

NCC(=O)O [glycine]
competition with radiolabelled proline uptake in Xenopus oocytes (PAT2 (SLC36A2) [1]): Glycine and alanine interact with all five carriers

CC[C@H](N)C(=O)O [α-ABA]
competition with radiolabelled proline uptake and direct uptake in Xenopus oocyt (PAT2 (SLC36A2) [2]): PAT2-F159I not only binds Ser and α-ABA but efficiently translocates these amino acids

N[C@@H](CO)C(=O)O [serine]
radiolabelled serine uptake and self-competition in Xenopus oocytes (SNAT5 (SLC38A5) [3]): Serine is transported well by SNAT5, whereas alanine is transported poorly

C[C@H](N)C(=O)O [alanine]
radiolabelled alanine uptake and competition with serine uptake in Xenopus oocyt (SNAT5 (SLC38A5) [4]): A138T and A138I mutants gain function and become excellent alanine transporters | radiolabelled alanine uptake and competition with serine uptake in Xenopus oocyt (SNAT5 (SLC38A5) [5]): A138T and A138I mutants gain function and become excellent alanine transporters

NC(=O)C[C@H](N)C(=O)O [asparagine]
competition with radiolabelled serine uptake in Xenopus oocytes (SNAT5 (SLC38A5) [6]): measured in the presence of e unlabelled serine, f asparagine, or g alanine

— publication PMC5809530, “Resculpting the binding pocket of APC superfamily LeuT-fold amino acid transporters” (Cellular and Molecular Life Sciences: CMLS, 2017)
